Eleven compounds from patent publication US11666594B2, “Antibody-drug conjugates comprising a cyclic dinucleotide” (TAKEDA PHARMACEUTICAL COMPANY LIMITED, priority 2016, dated 2023) can be followed below.

Where a name gives a salt, the structure may show the parent alone. Read-outs that look alike come from different tables or passages of the source.

In series [1] the target is WT STING (Homo sapiens (Human), UniProt Q86WV6, H232R). The series can be described thus: Reporter gene assay (2): ISRE NanoLuc reporter in 293T cells, with digitonin, WT STING. As to conditions: for activation at 30 µM: HEK-293T, read-out: activity level against WT STING of test compound (30 μM); for EC50: with digitonin, read-out: STING-293T cell EC50 (μM) Reporter with digitonin (B). The class given is cell-based. On the procedure:
The culture solution was removed, and the test compound diluted with assay buffer (50 mM HEPES pH 7.0, 100 mM KCl, 3 mM MgCl2, 85 mM Sucrose, 0.1 mM DTT, 0.2% BSA, 1 mM ATP, 0.1 mM GTP, 10 μg/ml Digitonin) was added thereto by 15 μL/well. […] Luminescence signals derived from firefly luciferase and NanoLuc Luciferase were each measured using EnVision (PerkinElmer, Waltham, Mass., US) according to Nano-Glo Dual-Luciferase Reporter Assay System (Promega, Fitchburg, Wis., US) protocol. The ratio of the count of NanoLuc Luciferase divided by the count of firefly luciferase was used for culculation.
In general terms: Reporter assays use an easily measured gene product as a stand-in for the process of interest.

The nature of series [2]: Human plasma stability assay. The class given is in vitro ADME. As to conditions: elimination rate constant k; heparinized human plasma, 37° C., up to 24 hours. On the procedure:
The compound was incubated in heparinized human plasma at 37° C. for 0, 1, 2, 4, 8 and 24 hours, and the change in compound concentration was measured by LC/MS/MS method. The elimination rate constant (=k(/h)) was calculated based on the fitted curve assuming the exponential decrease of concentration as follows; concentration at time x=initial concentration*exp(−k*x).

Series [3] concerns THP1-Dual cells. The series can be described thus: THP-1 Dual Lucia reporter gene assay. The class given is cell-based, human. As to conditions: 20 hours; read-out: THP-1 Dual cell EC50 (μM) Reporter. As to the method: THP1-Dual™ cells (InvivoGen #thpd-nfis) were derived from the human THP-1 monocyte cell line by stable integration of the Lucia luciferase gene, a secreted luciferase reporter gene, under the control of an ISG54 (interferon-stimulated gene) minimal promoter in conjunction with five interferon (IFN)-stimulated response elements. On the day of experiment, the cells were plated to a black, 384-well plate (Corning 356697) at 7500 cells/25 μL per well density in growth media (RPMI 1640, 2 mM L-glutamine, 25 mM HEPES, 10% heat-inactivated fetal bovine serum, 100 μg/mL Normocin™, 100 U/mL-100 μg/mL Pen-Strep, 10 μg/mL of blasticidin, and 100 μg/mL of Zeocin). The cell plates were dosed with 62.5 nL of the testing compounds, and then incubated at 37° C. for 20 hours. At the end of the incubation, 15 μL/well of the QUANTI-Luc™ (InvivoGen #rep-qlc1) were added, and luminescence was measured immediately using the LeadSeeker.

In series [4] the test system is CT-26 mouse tumor cells. Put plainly: Anti-tumor effect in colon carcinoma CT-26 syngeneic mice model. The class given is in vivo. As to conditions: CT-26, Balb/C mice; intravenous, q3dx3; Ex3a 30 mg/kg, Ex14 1.0 mg/kg. As to the method: (§1) 8×10^4 B^16F10 and 2×10^5 CT-26 mouse tumor cells were subcutaneously implanted in the flank of female C57BL/6 (B16F10) and Balb/C (CT-26) mice (n=7 per group). Vehicle (1×PBS), compound Ex3a (30 mg/kg) or Ex14 (1.0 mg/kg) were intravenously administered (final volume of […]) to tumor-bearing mice once the tumor volume has reached 100 mm^3 (Day 0). Vehicle, Ex3a or Ex14 were given every 3 days for a total of 3 doses (q3dx3). Tumor and body weight measurements were taken three times per week using vernier calipers and mettler scale, respectively. Tumor volumes were determined by multiplying the square of the width (‘W’), measured along the […] of the tumor, by one-half the length (‘L’) measured along the […] of the tumor (V=W^2×0.5 L)

For series [5], the system named is B16F10 mouse tumor cells. The series can be described thus: Anti-tumor effect in B16F10 syngeneic mice model. The class given is in vivo. As to conditions: B16F10, C57BL/6 mice; intravenous, q3dx3; Ex3a 30 mg/kg, Ex14 1.0 mg/kg. On the procedure: as §1
Setting [6] is: 30 μM, digitonin, 2′,3′-cGAMP (30 μM) = 100%.

Sequence of WT STING (Q86WV6 whole entry H232R): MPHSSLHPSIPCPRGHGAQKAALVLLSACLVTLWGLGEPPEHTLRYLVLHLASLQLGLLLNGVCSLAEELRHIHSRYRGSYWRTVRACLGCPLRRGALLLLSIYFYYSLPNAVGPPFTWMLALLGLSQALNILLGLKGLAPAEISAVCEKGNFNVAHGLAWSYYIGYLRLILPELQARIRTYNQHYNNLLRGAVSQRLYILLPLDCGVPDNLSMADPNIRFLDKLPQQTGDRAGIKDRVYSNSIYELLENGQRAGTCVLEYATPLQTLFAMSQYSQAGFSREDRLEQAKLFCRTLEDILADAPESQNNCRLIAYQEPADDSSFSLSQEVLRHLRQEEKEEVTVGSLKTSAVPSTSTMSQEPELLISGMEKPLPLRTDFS

For `Nc1nc2c(ncn2[C@@H]2O[C@@H]3COP(=O)(O)O[C@H]4[C@@H](O)[C@H](c5cnn6c(N)ncnc56)O[C@@H]4COP(=O)(O)O[C@@H]2[C@@H]3O)c(=O)[nH]1` [Example 13, 2-amino-9-((5R,7R,8R,12aR,14S,15S,15aS,16R)-14-(4-aminopyrazolo[1,5-a][1,3,5]triazin-8-yl)-2,10,15,16-tetrahydroxy-2,10-dioxidooctahydro-12H-5,8-methanofuro[3,2-1][1,3,6,9,11,2,10]pentaoxadiphosphacyclotetradecin-7-yl)-1,9-dihydro-6H-purin-6-one di-triethylamine salt], the activation at 30 µM in series [1] was determined as 99%.

In the case of `Nc1ncnc2c1ncn2[C@@H]1O[C@@H]2COP(=O)(O)O[C@@H]3[C@H](O)[C@@H](COP(=O)(O)O[C@H]2[C@H]1F)O[C@H]3n1cc(F)c2c(=O)[nH]cnc21` [Example 1, 7-((5R,7R,8R,12aR,14R,15R,15aR,16R)-14-(6-amino-9H-purin-9-yl)-15-fluoro-2,10,16-trihydroxy-2,10-dioxidooctahydro-12H-5,8-methanofuro[3,2-1][1,3,6,9,11,2,10]pentaoxadiphosphacyclotetradecin-7-yl)-5-fluoro-3,7-dihydro-4H-pyrrolo[2,3-d]pyrimidin-4-one di-triethylamine salt], in series [1] (setting [6]), the activation at 30 µM came out at 97%.

Take `Nc1ncnc2c1ncn2[C@@H]1O[C@@]23CO[C@@H]1[C@@H]2OP(=O)(O)OC[C@H]1O[C@@H](n2cc(F)c4c(=O)[nH]cnc42)[C@H](OP(=O)(O)OC3)[C@@H]1O` [Example 16, 7-((5R,7R,8R,12aR,14R,15R,15aS,18R)-14-(6-amino-9H-purin-9-yl)-2,10,18-trihydroxy-2,10-dioxidohexahydro-14H-15,12a-(epoxymethano)-5,8-methanofuro[3,2-1][1,3,6,9,11,2,10]pentaoxadiphosphacyclotetradecin-7(12H)-yl)-5-fluoro-3,7-dihydro-4H-pyrrolo[2,3-d]pyrimidin-4-one di-triethylamine salt]: in series [1] (setting [6]), the activation at 30 µM amounted to 114%.

For `Nc1ncnc2c1ncn2[C@@H]1O[C@@H]2COP(=O)(S)O[C@@H]3[C@H](O)[C@@H](COP(=O)(S)O[C@H]2[C@H]1O)O[C@H]3n1cc(F)c2c(=O)[nH]cnc21` (stereo partly drawn) [Example 5, 7-((5R,7R,8R,12aR,14R,15R,15aS,16R)-14-(6-amino-9H-purin-9-yl)-15,16-dihydroxy-2,10-dioxido-2,10-disulfanyloctahydro-12H-5,8-methanofuro[3,2-1][1,3,6,9,11,2,10]pentaoxadiphosphacyclotetradecin-7-yl)-5-fluoro-3,7-dihydro-4H-pyrrolo[2,3-d]pyrimidin-4-one di-triethylamine salt (Optical Isomer)], the “Human plasma stability” value in series [2] is under 0.01 h⁻¹. Moreover, in series [1] (setting [6]), the activation at 30 µM was 102%. In series [1], the EC50 came out at 0.19 µM.

As for `Nc1ncnc2c1ncn2[C@@H]1O[C@@H]2COP(=O)(O)O[C@@H]3[C@H](O)[C@@H](COP(=O)(O)O[C@H]2[C@H]1F)O[C@H]3n1cc(F)c2c(=O)[nH]cnc21` [Example 1a, 7-((5R,7R,8R,12aR,14R,15R,15aR,16R)-14-(6-amino-9H-purin-9-yl)-15-fluoro-2,10,16-trihydroxy-2,10-dioxidooctahydro-12H-5,8-methanofuro[3,2-1][1,3,6,9,11,2,10]pentaoxadiphosphacyclotetradecin-7-yl)-5-fluoro-3,7-dihydro-4H-pyrrolo[2,3-d]pyrimidin-4-one disodium salt], the activation at 30 µM in series [1] (setting [6]) came out at 99%.

With `Nc1ncnc2c1ncn2[C@@H]1O[C@@H]2COP(=O)(O)O[C@@H]3[C@H](O)[C@@H](COP(=O)(S)O[C@H]2[C@H]1F)O[C@H]3n1cc(F)c2c(=O)[nH]cnc21` (stereo partly drawn) [Example 3, 7-((2R,5R,7R,8R,12aR,14R,15R,15aR,16R)-14-(6-amino-9H-purin-9-yl)-15-fluoro-10,16-dihydroxy-2,10-dioxido-2-sulfanyloctahydro-12H-5,8-methanofuro[3,2-1][1,3,6,9,11,2,10]pentaoxadiphosphacyclotetradecin-7-yl)-5-fluoro-3,7-dihydro-4H-pyrrolo[2,3-d]pyrimidin-4-one 1.7 triethylamine salt], in series [1] (setting [6]), the activation at 30 µM was 97%.

On to `Nc1ncnc2c1ncn2[C@@H]1O[C@@H]2COP(=O)(O)O[C@@H]3[C@H](O)[C@@H](COP(=O)(S)O[C@H]2[C@H]1F)O[C@H]3n1cc(F)c2c(=O)[nH]cnc21` (stereo partly drawn) [Ex3a, disodium (5R,7R,8R,2aR,14R,15R,5aR,16R)-14-(6-amino-9H-purin-9-yl)-15-fluoro-7-(5-fluoro-4-oxo-3,4-dihydro-7H-pyrrolo[2,3-d]pyrimidin-7-yl)-16-hydroxy-2-sulfidooctahydro-12H-5,8-methanofuro[3,2-1][1,3,6,9,11,2,10]pentaoxadiphosphacyclotetradecin-10-olate 2,10-dioxide], for which the EC50 in series [3] turned out to be 5.6 µM; in series [1], 0.13 µM. For the same compound, the “Human plasma stability” value in series [2] turned out to be 0.58 h⁻¹. Besides, the anti-tumor effect result in series [4] and in series [5] was “anti-tumor effects were observed” in each case.

Turning to `Nc1ncnc2c1ncn2[C@@H]1O[C@@]23CO[C@@H]1[C@@H]2OP(=O)(S)OC[C@H]1O[C@@H](n2cc(F)c4c(=O)[nH]cnc42)[C@H](OP(=O)(O)OC3)[C@@H]1O` (stereo partly drawn) [Example 17, 7-((5R,7R,8R,12aR,14R,15R,15aS,18R)-14-(6-amino-9H-purin-9-yl)-10,18-dihydroxy-2,10-dioxido-2-sulfanylhexahydro-14H-15,12a-(epoxymethano)-5,8-methanofuro[3,2-1][1,3,6,9,11,2,10]pentaoxadiphosphacyclotetradecin-7(12H)-yl)-5-fluoro-3,7-dihydro-4H-pyrrolo[2,3-d]pyrimidin-4-one di-trimethylamine salt], in series [1], the activation at 30 µM was 110%.

Turning to `Nc1nc2c(ncn2[C@@H]2O[C@@H]3COP(=O)(O)O[C@@H]4[C@H](O)[C@@H](COP(=O)(O)O[C@H]3[C@H]2F)O[C@H]4n2cc(F)c3c(=O)[nH]cnc32)c(=O)[nH]1` [Example 19, 2-amino-9-((5R,7R,8R,12aR,14R,15R,15aR,16R)-15-fluoro-7-(5-fluoro-4-oxo-3,4-dihydro-7H-pyrrolo[2,3-d]pyrimidin-7-yl)-2,10,16-trihydroxy-2,10-dioxidooctahydro-12H-5,8-methanofuro[3,2-1][1,3,6,9,11,2,10]pentaoxadiphosphacyclotetradecin-14-yl)-1,9-dihydro-6H-purin-6-one di-triethylamine salt], in series [1], the activation at 30 µM turned out to be 101%.

As to `Nc1nc2c(ncn2[C@@H]2O[C@@H]3COP(=O)(O)O[C@H]4[C@@H](O)[C@H](n5cnc6c(N)ncnc65)O[C@@H]4COP(=O)(O)O[C@@H]2[C@@H]3O)c(=O)[nH]1` [cGAMP, 2′,3′-cGAMP, reference compound], in series [2], the “Human plasma stability” value was 1.39 h⁻¹.

Consider `Nc1ncnc2c1ncn2[C@@H]1O[C@@H]2COP(=O)(S)O[C@@H]3[C@H](O)[C@@H](COP(=O)(S)O[C@H]2[C@H]1F)O[C@H]3n1cc(F)c2c(=O)[nH]cnc21` (stereo partly drawn) [Example 14, 7-((2R,5R,7R,8R,10R,12aR,14R,15R,15aR,16R)-14-(6-amino-9H-purin-9-yl)-15-fluoro-16-hydroxy-2,10-dioxido-2,10-disulfanyloctahydro-12H-5,8-methanofuro[3,2-1][1,3,6,9,11,2,10]pentaoxadiphosphacyclotetradecin-7-yl)-5-fluoro-3,7-dihydro-4H-pyrrolo[2,3-d]pyrimidin-4-one disodium salt], for which the “Human plasma stability” value in series [2] was under 0.01 h⁻¹. Also, the EC50 in series [1] came to 0.13 µM. Also, the anti-tumor effect entry in series [4] and in series [5] was “anti-tumor effects were observed” throughout.

What is called EC50 is the concentration that produces a half-maximal response.
